From US9221864B2, “Tricyclic nucleic acid analogs” (Isis Pharmaceuticals, Inc., priority 2012, dated 2015) come the findings set out here.

What all share (type): binding
The test system of data set [1] is mismatched RNA complement 5′-r(AGCAAAZAACGC)-3′, Z=C. The data set is described as follows: Mismatch discrimination (Tm) vs mismatched RNA complement, Z=C. The conditions noted are these: 1.2 μM, 10 mM sodium phosphate buffer pH 7.2, 100 mM NaCl, 0.1 mM EDTA. The method, then:
(§1) The oligomeric compounds in Table 1 were evaluated for thermal stability (Tm) using the method described herein. The Tm of the modified 12mer oligomeric compounds were compared to an unmodified 12mer DNA oligonucleotide when duplexed to either the matched or mismatched RNA complement.
(§2) Tm's were determined using a Cary 100 Bio spectrophotometer with the Cary Win UV thermal program was used to measure absorbance vs. temperature. For the Tm experiments, the oligomeric compounds were prepared at a concentration of 1.2 μM in 10 mM sodium phosphate buffer (pH 7.2) containing 100 mM NaCl and 0.1 mM EDTA. The concentrations, determined at 85° C. was 1.2 μM after mixing of equal volumes of selected oligomeric compound and complementary matched or mismatched RNA. The oligomeric compounds were hybridized with a complimentary matched or mismatched RNA by heating the duplex to 90° C. for 5 minutes and then cooling to room temperature. Tm measurements were taken using a spectrophotometer while the duplex solution was heated in a cuvette at a rate of 0.5° C./min starting at 15° C. until the temperature was 85° C. Tm values were determined using Vant Hoff calculations (A260 vs temperature curve) using non self-complementary sequences where the minimum absorbance related to the duplex and the maximum absorbance related to the non-duplex single strand are manually integrated into the program. […]
(§3) The sequence for matched DNA complement is designated herein as SEQ ID No.: 6, 5′-d(AGCAAAXAACGC)-3′, wherein X=A. The sequence for matched RNA complement is designated herein as SEQ ID No.: 6, 5′-r(AGCAAAYAACGC)-3′, wherein Y=A. The mismatched RNA complement sequence is designated herein as SEQ ID No.: 7, 5′-r(AGCAAAZAACGC)-3′, wherein Z=G, C or U.

In data set [2] the test system is mismatched RNA complement 5′-r(AGCAAAZAACGC)-3′, Z=U. The data set is described as follows: Mismatch discrimination (Tm) vs mismatched RNA complement, Z=U. The note with it: 1.2 μM, 10 mM sodium phosphate buffer pH 7.2, 100 mM NaCl, 0.1 mM EDTA. The method, then: as §1, §2, §3
Data set [3] has as its system matched DNA complement 5′-d(AGCAAAXAACGC)-3′, X=A. In words: Thermal stability (Tm) of 12mer oligomeric compounds duplexed to matched DNA complement. The conditions noted are these: relative to unmodified DNA 12mer ISIS 438705; 1.2 μM, 10 mM sodium phosphate buffer pH 7.2, 100 mM NaCl, 0.1 mM EDTA. The method, then:
as §1
(§4) Tm's were determined using a Cary 100 Bio spectrophotometer with the Cary Win UV thermal program was used to measure absorbance vs. temperature. For the Tm experiments, the oligomeric compounds were prepared at a concentration of 1.2 μM in 10 mM sodium phosphate buffer (pH 7.2) containing 100 mM NaCl and 0.1 mM EDTA. The concentrations, determined at 85° C. was 1.2 μM after mixing of equal volumes of selected oligomeric compound and complementary matched or mismatched RNA. The oligomeric compounds were hybridized with a complimentary matched or mismatched RNA by heating the duplex to 90° C. for 5 minutes and then cooling to room temperature. Tm measurements were taken using a spectrophotometer while the duplex solution was heated in a cuvette at a rate of 0.5° C./min starting at 15° C. until the temperature was 85° C. Tm values were determined using Vant Hoff calculations (A260 vs temperature curve) using non self-complementary sequences where the minimum absorbance related to the duplex and the maximum absorbance related to the non-duplex single strand are manually integrated into the program. Mismatched thermal stability was also measured and calculated by subtracting values of Tm measured vs the mismatched RNA complement from values of Tm vs the matched RNA complement for each modification.
as §3

Data set [4] has as its system mismatched RNA complement 5′-r(AGCAAAZAACGC)-3′, Z=G. The data set is described as follows: Mismatch discrimination (Tm) vs mismatched RNA complement, Z=G. The note with it: 1.2 μM, 10 mM sodium phosphate buffer pH 7.2, 100 mM NaCl, 0.1 mM EDTA. Here is the method:
as §1, §4, §3

The test system of data set [5] is matched RNA complement 5′-r(AGCAAAYAACGC)-3′, Y=A. The data set is described as follows: Thermal stability (Tm) of 12mer oligomeric compounds duplexed to matched RNA complement. The note with it: relative to unmodified DNA 12mer ISIS 438705; 1.2 μM, 10 mM sodium phosphate buffer pH 7.2, 100 mM NaCl, 0.1 mM EDTA. Here is the method:
as §1, §4, §3

In the case of “A01: 12mer GCGTTTbTTTGCT with one α-L-TriNA (α-L-tricyclic nucleic acid) nucleoside, phosphodiester linkages, SEQ ID No. 5 (DNA GCGTTT_{b}TTTGCT; as printed in the source, key not given here) [Compound A01]”, the “ΔTm/mod vs RNA, Mismatched, Z = C; Mismatched Discrimination [Tm(mismatched) − Tm(matched)]” value (shortened to “ΔTm/mod vs RNA, Mismatched, Z = C”) in data set [1] was −16.7 °C. Further, the “ΔTm/mod vs RNA, Mismatched, Z = U; Mismatched Discrimination [Tm(mismatched) − Tm(matched)]” value (“ΔTm/mod vs RNA, Mismatched, Z = U” below) in data set [2] was −17.0 °C. In addition, the “ΔTm/mod vs DNA, Matched, X = A” value in data set [3] is “+2.6 °C”. In addition, in data set [4], the “ΔTm/mod vs RNA, Mismatched, Z = G; Mismatched Discrimination [Tm(mismatched) − Tm(matched)]” value (from here on “ΔTm/mod vs RNA, Mismatched, Z = G”) was −5.5 °C. Moreover, in data set [5], the “ΔTm/mod vs RNA, Matched, Y = A” value was “+7.1 °C”.

Take “ISIS 438705: unmodified 12mer DNA GCGTTTTTTGCT, phosphodiester linkages, SEQ ID No. 5, purchased from commercial sources (unmodified DNA)”: in data set [1], the “ΔTm/mod vs RNA, Mismatched, Z = C” value was −13.0 °C. In data set [2], the “ΔTm/mod vs RNA, Mismatched, Z = U” value was −13.2 °C. Moreover, the “ΔTm/mod vs DNA, Matched, X = A” value in data set [3] is listed as 0 (ref) ° C. Further, the “ΔTm/mod vs RNA, Mismatched, Z = G” value in data set [4] is −4.1 °C. Moreover, the “ΔTm/mod vs RNA, Matched, Y = A” value in data set [5] is reported as 0 (ref) ° C.

Turning to “ISIS 438707: 12mer GCGTTT1TTTGCT with one LNA nucleoside, phosphodiester linkages, SEQ ID No. 5 (DNA GCGTTT_{1}TTTGCT; as printed in the source, key not given here)”, the “ΔTm/mod vs RNA, Mismatched, Z = C” value in data set [1] was −15.4 °C. Further, the “ΔTm/mod vs RNA, Mismatched, Z = U” value in data set [2] is −13.7 °C. The “ΔTm/mod vs DNA, Matched, X = A” value in data set [3] was “+1.7 °C”. Also, the “ΔTm/mod vs RNA, Mismatched, Z = G” value in data set [4] is −5.4 °C. Also, the “ΔTm/mod vs RNA, Matched, Y = A” value in data set [5] is “+5.5 °C”.

Regarding “ISIS 560180: 12mer GCGTTTaTTTGCT with one α-L-LNA nucleoside, phosphodiester linkages, SEQ ID No. 5 (DNA GCGTTT_{a}TTTGCT; as printed in the source, key not given here)”, the “ΔTm/mod vs RNA, Mismatched, Z = C” value in data set [1] was −14.8 °C. In addition, in data set [2], the “ΔTm/mod vs RNA, Mismatched, Z = U” value is −13.5 °C. In addition, the “ΔTm/mod vs DNA, Matched, X = A” value in data set [3] is “+1.4 °C”. In addition, in data set [4], the “ΔTm/mod vs RNA, Mismatched, Z = G” value is −4.7 °C. For the same substance, the “ΔTm/mod vs RNA, Matched, Y = A” value in data set [5] was “+5.7 °C”.
